Experimental data as given in ChEMBL document CHEMBL4428137, “Development of a Potent and Selective HDAC8 Inhibitor” (ACS Med Chem Lett, 2016).
Each block holds one compound with its values, some of them ahead of it. Active and inactive are the calls of the source. The rule behind the calls is not given here.

Columns and labels:
Histone deacetylase 1 = Histone deacetylase 1 (Homo sapiens, UniProt Q13547); assay: Inhibition of recombinant full length human C-terminal FLAG/His-tagged HDAC1 expressed in baculovirus expression system using fluorophore-conjugated substrate by fluorescence assay
Histone deacetylase 1, sequence (Q13547 whole entry): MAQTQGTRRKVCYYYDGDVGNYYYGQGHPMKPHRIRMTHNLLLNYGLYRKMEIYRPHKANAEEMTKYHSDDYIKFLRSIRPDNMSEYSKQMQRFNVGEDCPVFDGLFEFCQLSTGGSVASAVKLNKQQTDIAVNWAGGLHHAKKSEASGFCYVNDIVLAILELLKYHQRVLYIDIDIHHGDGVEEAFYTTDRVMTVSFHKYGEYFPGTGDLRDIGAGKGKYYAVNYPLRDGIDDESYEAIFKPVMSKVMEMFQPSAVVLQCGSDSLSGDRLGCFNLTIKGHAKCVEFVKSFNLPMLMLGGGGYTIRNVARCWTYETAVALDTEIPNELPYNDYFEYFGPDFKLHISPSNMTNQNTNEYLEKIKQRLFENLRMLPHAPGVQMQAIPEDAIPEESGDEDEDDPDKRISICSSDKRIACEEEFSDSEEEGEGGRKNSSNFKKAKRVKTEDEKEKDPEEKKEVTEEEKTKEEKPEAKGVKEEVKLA

Histone deacetylase 2 = Histone deacetylase 2 (Homo sapiens, UniProt Q92769); assay: Inhibition of recombinant full length human HDAC2 expressed in sf9 cells using fluorophore-conjugated substrate by fluorescence assay
Histone deacetylase 2, sequence (Q92769 whole entry, the tested form may be a part): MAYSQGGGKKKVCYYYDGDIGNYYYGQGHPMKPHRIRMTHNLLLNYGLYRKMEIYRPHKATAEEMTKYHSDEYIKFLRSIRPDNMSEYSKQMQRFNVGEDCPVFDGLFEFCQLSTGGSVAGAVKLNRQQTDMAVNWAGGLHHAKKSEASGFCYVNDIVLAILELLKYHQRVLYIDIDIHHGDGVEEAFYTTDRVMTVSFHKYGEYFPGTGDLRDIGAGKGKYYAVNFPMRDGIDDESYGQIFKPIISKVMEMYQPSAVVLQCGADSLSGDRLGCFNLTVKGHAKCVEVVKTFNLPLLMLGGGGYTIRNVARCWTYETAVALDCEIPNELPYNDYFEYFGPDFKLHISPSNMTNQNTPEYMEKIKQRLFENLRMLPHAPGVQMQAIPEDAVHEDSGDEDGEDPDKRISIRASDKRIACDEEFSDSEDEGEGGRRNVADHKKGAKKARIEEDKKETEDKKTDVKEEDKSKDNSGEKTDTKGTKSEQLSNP

Histone deacetylase 3 = Histone deacetylase 3 (Homo sapiens, UniProt O15379); assay: Inhibition of recombinant full length human C-terminal His-tagged HDAC3 expressed in sf9 cells co-expressing human N-terminal GST-tagged NCOR2 (395 to 489 residues) using fluorophore-conjugated substrate by fluorescence assay
Histone deacetylase 3, sequence (O15379 whole entry, the tested form may be a part): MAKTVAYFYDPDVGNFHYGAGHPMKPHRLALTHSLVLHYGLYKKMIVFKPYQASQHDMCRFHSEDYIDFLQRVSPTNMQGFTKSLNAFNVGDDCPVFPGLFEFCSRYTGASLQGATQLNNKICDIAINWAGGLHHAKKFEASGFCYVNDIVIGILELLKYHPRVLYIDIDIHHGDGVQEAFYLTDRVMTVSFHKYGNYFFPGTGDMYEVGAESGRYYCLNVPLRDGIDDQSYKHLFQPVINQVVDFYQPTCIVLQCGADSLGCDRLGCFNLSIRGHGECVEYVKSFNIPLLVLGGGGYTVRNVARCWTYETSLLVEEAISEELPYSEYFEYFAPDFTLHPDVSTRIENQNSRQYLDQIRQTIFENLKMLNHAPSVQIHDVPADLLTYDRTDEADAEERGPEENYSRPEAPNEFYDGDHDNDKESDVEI

[1] = molecular target: T1, Protein deacetylase HDAC6 (Homo sapiens) (UniProt Q9UBN7); assay: (§1) Inhibition of recombinant full length human HDAC6 expressed in sf9 cells using fluorophore-conjugated substrate by fluorescence assay
T1 sequence (whole entry): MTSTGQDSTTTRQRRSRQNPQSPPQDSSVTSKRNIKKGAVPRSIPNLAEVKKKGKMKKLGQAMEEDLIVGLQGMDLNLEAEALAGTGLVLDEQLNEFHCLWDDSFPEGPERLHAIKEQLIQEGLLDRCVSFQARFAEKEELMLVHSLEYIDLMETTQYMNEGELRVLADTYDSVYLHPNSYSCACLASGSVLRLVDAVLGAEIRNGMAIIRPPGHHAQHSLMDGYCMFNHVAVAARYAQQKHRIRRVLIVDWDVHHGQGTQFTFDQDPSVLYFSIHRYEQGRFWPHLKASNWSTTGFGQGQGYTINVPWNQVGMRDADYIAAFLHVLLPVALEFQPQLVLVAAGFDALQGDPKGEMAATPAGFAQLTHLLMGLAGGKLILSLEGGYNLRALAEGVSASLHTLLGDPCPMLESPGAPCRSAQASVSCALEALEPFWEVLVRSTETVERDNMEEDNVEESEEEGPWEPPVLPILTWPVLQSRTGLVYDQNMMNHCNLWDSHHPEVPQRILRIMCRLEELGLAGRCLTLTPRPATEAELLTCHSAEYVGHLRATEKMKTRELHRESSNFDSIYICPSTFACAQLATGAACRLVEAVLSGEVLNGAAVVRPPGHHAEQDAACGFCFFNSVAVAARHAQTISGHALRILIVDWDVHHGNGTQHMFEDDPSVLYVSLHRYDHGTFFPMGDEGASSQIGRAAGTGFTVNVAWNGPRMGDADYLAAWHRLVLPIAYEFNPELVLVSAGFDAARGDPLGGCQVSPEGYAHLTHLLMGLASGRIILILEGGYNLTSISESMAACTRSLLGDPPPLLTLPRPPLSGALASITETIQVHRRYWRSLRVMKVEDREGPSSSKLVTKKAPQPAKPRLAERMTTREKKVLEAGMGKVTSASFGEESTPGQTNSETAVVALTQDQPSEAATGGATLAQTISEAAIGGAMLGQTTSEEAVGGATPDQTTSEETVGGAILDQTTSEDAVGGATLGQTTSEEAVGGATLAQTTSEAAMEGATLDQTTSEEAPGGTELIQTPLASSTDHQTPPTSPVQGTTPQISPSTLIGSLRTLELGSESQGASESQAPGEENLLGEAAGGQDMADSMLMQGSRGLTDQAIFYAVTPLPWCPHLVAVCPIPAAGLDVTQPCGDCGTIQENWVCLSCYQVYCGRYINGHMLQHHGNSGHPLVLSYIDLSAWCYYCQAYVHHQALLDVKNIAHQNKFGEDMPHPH

Histone deacetylase 4 = Histone deacetylase 4 (Homo sapiens, UniProt P56524); assay: Inhibition of HDAC4 (unknown origin)
Histone deacetylase 4, sequence (P56524 whole entry): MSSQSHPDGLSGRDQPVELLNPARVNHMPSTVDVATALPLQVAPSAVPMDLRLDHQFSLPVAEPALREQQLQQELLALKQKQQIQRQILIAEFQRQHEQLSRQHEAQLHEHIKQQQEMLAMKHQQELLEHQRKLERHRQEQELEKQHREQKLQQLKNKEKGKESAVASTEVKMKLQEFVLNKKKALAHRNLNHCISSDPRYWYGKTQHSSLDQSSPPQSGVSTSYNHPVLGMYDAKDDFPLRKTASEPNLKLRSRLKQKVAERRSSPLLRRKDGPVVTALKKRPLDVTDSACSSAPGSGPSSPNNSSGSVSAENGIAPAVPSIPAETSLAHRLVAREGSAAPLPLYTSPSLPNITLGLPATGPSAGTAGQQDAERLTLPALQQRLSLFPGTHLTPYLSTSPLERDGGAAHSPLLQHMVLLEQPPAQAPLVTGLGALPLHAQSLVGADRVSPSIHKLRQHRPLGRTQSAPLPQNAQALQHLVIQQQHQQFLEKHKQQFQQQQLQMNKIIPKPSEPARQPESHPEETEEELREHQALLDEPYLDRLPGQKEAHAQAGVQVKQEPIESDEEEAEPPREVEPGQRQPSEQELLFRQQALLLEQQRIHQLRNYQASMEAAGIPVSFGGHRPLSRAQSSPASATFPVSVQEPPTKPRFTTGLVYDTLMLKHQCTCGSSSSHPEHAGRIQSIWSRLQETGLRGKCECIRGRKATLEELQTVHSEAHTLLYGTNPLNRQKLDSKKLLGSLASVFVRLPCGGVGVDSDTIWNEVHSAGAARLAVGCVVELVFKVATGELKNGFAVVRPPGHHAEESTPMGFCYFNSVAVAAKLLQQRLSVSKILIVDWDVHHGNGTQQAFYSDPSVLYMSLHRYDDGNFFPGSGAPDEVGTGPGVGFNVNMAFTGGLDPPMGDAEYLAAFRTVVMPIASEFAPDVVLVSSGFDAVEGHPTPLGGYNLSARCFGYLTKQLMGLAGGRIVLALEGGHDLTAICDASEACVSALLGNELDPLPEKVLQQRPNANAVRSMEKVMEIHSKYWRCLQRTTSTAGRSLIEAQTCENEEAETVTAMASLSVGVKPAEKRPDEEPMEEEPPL

Histone deacetylase 5 = Histone deacetylase 5 (Homo sapiens, UniProt Q9UQL6); assay: Inhibition of HDAC5 (unknown origin)
Histone deacetylase 5, sequence (Q9UQL6 whole entry): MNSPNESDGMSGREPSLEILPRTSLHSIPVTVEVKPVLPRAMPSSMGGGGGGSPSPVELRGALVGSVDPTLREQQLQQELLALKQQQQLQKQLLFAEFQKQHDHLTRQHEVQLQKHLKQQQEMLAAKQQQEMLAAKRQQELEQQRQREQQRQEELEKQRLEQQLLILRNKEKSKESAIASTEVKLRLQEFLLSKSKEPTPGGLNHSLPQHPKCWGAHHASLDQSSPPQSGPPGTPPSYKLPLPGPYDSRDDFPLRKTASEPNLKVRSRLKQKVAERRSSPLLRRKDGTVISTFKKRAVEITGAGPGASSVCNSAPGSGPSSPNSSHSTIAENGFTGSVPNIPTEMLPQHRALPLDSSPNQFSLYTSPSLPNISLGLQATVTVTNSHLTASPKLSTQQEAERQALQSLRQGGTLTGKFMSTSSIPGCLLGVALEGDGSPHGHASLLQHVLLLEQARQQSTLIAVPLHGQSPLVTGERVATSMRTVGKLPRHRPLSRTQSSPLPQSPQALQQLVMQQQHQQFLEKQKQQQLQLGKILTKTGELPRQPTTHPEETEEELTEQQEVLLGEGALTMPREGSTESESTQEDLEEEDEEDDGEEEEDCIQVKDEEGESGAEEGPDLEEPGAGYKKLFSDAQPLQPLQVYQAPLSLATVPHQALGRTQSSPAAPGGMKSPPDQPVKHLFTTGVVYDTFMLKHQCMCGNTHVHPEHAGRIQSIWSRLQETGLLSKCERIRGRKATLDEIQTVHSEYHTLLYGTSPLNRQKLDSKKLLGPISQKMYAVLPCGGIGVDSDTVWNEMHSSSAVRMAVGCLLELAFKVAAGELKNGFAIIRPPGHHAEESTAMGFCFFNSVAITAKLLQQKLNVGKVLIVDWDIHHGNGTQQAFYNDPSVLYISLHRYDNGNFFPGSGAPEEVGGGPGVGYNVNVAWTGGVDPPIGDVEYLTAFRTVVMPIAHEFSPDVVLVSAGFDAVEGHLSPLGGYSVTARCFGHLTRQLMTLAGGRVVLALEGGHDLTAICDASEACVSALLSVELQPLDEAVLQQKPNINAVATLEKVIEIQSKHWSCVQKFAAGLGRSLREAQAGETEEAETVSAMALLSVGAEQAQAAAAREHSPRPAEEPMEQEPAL

[2] = molecular target: T2, Histone deacetylase 7 (Homo sapiens) (UniProt Q8WUI4); assay: (§2) Inhibition of HDAC7 (unknown origin)
T2 sequence (whole entry): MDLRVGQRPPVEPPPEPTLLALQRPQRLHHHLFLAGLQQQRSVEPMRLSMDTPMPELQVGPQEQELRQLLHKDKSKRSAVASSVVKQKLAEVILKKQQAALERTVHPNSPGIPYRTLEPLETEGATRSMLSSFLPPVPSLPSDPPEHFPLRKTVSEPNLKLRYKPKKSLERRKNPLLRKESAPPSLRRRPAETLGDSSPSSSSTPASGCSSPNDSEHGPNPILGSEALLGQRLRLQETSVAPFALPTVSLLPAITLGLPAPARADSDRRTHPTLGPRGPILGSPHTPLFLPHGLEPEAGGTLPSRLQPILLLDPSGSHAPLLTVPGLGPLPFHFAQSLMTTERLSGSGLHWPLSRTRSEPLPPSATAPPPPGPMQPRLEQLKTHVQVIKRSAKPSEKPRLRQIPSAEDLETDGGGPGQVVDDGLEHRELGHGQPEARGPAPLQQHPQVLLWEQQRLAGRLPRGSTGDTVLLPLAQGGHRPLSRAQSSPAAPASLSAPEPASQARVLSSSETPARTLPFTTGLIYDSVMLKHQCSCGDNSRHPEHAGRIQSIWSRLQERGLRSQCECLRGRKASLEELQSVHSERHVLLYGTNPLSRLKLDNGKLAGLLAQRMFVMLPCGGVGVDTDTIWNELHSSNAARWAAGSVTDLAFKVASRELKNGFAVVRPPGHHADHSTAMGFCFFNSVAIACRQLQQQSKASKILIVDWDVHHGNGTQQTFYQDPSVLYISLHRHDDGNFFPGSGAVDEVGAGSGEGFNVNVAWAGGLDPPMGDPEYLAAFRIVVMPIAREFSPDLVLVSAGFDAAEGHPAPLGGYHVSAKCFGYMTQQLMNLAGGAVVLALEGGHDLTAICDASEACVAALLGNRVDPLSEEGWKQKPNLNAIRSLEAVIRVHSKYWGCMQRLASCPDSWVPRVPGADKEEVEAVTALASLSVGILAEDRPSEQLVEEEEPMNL

[3] = molecular target: T3, Histone deacetylase 8 (Homo sapiens) (UniProt Q9BY41); assay: (§3) Inhibition of HDAC8 (unknown origin) using fluorophore-conjugated substrate by fluorescence assay
T3 sequence (whole entry): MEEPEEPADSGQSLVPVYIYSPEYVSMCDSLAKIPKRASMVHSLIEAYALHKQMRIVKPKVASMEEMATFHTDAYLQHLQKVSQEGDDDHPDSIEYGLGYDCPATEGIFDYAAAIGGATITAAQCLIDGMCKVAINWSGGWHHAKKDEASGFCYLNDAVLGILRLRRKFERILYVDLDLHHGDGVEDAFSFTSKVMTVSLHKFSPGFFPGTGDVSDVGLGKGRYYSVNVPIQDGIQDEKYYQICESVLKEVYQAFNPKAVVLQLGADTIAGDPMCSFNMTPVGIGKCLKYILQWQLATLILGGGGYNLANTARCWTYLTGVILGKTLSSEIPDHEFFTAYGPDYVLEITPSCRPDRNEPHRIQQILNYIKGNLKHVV

Histone deacetylase 9 = Histone deacetylase 9 (Homo sapiens, UniProt Q9UKV0); assay: Inhibition of HDAC9 (unknown origin)
Histone deacetylase 9, sequence (Q9UKV0 whole entry): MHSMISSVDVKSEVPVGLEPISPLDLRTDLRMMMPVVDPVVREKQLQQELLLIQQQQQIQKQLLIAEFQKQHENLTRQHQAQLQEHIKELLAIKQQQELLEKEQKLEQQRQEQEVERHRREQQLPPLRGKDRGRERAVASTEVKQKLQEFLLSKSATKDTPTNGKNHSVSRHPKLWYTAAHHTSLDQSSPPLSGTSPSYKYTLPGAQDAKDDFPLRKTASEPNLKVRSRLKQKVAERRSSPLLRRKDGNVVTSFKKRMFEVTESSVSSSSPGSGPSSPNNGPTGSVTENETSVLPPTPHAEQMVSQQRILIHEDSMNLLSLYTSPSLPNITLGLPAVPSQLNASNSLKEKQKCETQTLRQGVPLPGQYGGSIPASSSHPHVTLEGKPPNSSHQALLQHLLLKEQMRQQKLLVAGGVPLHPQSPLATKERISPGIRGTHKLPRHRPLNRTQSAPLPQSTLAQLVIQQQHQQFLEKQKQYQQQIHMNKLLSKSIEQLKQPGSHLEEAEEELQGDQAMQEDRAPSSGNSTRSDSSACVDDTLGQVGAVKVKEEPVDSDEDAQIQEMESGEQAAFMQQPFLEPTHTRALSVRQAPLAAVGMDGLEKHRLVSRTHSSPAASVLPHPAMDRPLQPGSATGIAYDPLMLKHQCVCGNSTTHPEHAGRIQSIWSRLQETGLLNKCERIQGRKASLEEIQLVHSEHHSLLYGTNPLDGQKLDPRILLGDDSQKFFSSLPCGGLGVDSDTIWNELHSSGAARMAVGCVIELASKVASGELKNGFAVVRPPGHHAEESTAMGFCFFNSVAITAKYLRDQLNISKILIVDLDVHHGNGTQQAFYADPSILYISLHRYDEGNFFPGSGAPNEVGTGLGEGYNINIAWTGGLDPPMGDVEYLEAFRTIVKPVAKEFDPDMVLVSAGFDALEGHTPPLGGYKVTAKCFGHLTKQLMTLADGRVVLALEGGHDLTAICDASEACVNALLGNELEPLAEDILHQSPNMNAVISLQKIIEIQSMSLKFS

Histone deacetylase 8 = molecular target: T4, Histone deacetylase 8 (Homo sapiens, UniProt Q9BY41); assay: as §3
T4 sequence (Q9BY41 whole entry): T3 sequence (whole entry)

[4] = molecular target: T5, Protein deacetylase HDAC6 (Homo sapiens, UniProt Q9UBN7); assay: as §1
T5 sequence (Q9UBN7 whole entry): T1 sequence (whole entry)

Histone deacetylase 7 = molecular target: T6, Histone deacetylase 7 (Homo sapiens, UniProt Q8WUI4); assay: as §2
T6 sequence (Q8WUI4 whole entry): T2 sequence (whole entry)

IC50 (Histone deacetylase 8): 1500 nM
SMILES: CCc1ccc(C#Cc2c(-c3ccccc3)nnn2[C@@H](Cc2ccccc2)C(=O)NO)cc1

inhibition (Histone deacetylase 1): inactive | inhibition (Histone deacetylase 2): inactive | inhibition (Histone deacetylase 3): inactive | inhibition [1]: inactive | inhibition (Histone deacetylase 4): inactive | inhibition (Histone deacetylase 5): inactive | inhibition [2]: inactive | inhibition [3]: inactive | inhibition (Histone deacetylase 9): inactive
SMILES: CNC(=O)[C@H](Cc1ccccc1)n1nnc(-c2ccccc2)c1C#Cc1ccccc1

IC50 (Histone deacetylase 8): 4 nM
SMILES: O=C(NO)[C@H](Cc1ccccc1)n1nnc(-c2ccsc2)c1C#CC1CC1

IC50 (Histone deacetylase 8): 133 nM
SMILES: CC(C)(C)c1ccc(-c2nnn([C@@H](Cc3ccccc3)C(=O)NO)c2C#CC2CC2)cc1

IC50 (Histone deacetylase 8): 9100 nM
SMILES: O=C(NO)[C@H](Cc1ccccc1)n1nnc(-c2ccccc2)c1C#Cc1ccc(-c2ccccc2)cc1

IC50 (Histone deacetylase 1): > 20000 nM | IC50 (Histone deacetylase 2): > 20000 nM | IC50 (Histone deacetylase 3): > 20000 nM | IC50 [4]: 3600 nM | IC50 (Histone deacetylase 4): > 20000 nM | IC50 (Histone deacetylase 5): > 20000 nM | IC50 (Histone deacetylase 7): > 20000 nM | IC50 (Histone deacetylase 8): 10 nM | IC50 (Histone deacetylase 9): > 20000 nM
SMILES: O=C(NO)[C@H](Cc1ccccc1)n1nnc(-c2ccccc2)c1C#Cc1ccccc1

inhibition [3]: inactive
SMILES: O=C(NO)[C@H](Cc1ccccc1)n1nnc(-c2ccccc2)c1CCC1CC1

IC50 (Histone deacetylase 8): 7 nM
SMILES: O=C(NO)[C@H](Cc1c[nH]c2ccccc12)n1nnc(-c2ccccc2)c1C#CC1CC1

IC50 (Histone deacetylase 8): 160 nM
SMILES: CCCCCc1c(-c2ccccc2)nnn1[C@@H](Cc1ccccc1)C(=O)NO

The remaining lines, values behind:

SMILES: O=C(NO)[C@H](Cc1ccccc1)n1cc(-c2ccccc2)nn1
inhibition (Histone deacetylase 1): inactive | inhibition (Histone deacetylase 2): inactive | inhibition (Histone deacetylase 3): inactive | inhibition [1]: inactive | inhibition (Histone deacetylase 4): inactive | inhibition (Histone deacetylase 5): inactive | inhibition [2]: inactive | inhibition [3]: inactive | inhibition (Histone deacetylase 9): inactive

SMILES: CC(C)[C@@H](C(=O)NO)n1nnc(-c2ccccc2)c1C#Cc1ccccc1
IC50 (Histone deacetylase 8): 2300 nM

SMILES: O=C(O)[C@H](Cc1ccccc1)n1nnc(-c2ccccc2)c1C#Cc1ccccc1
inhibition (Histone deacetylase 1): inactive | inhibition (Histone deacetylase 2): inactive | inhibition (Histone deacetylase 3): inactive | inhibition [1]: inactive | inhibition (Histone deacetylase 4): inactive | inhibition (Histone deacetylase 5): inactive | inhibition [2]: inactive | inhibition [3]: inactive | inhibition (Histone deacetylase 9): inactive

SMILES: CCC/C=C/c1c(-c2ccccc2)nnn1[C@@H](Cc1ccccc1)C(=O)NO
IC50 (Histone deacetylase 8): 464 nM

SMILES: O=C(NO)[C@H](Cc1ccccc1)n1nnc(-c2ccccc2)c1C#CC1CC1
IC50 (Histone deacetylase 1): 4300 nM | IC50 (Histone deacetylase 2): > 20000 nM | IC50 (Histone deacetylase 3): > 20000 nM | IC50 [4]: 1200 nM | IC50 (Histone deacetylase 4): > 20000 nM | IC50 (Histone deacetylase 5): > 20000 nM | IC50 (Histone deacetylase 7): > 20000 nM | IC50 (Histone deacetylase 8): 0.8 nM | IC50 (Histone deacetylase 9): > 20000 nM

SMILES: COC(=O)[C@H](Cc1ccccc1)n1nnc(-c2ccccc2)c1C#Cc1ccccc1
inhibition (Histone deacetylase 1): inactive | inhibition (Histone deacetylase 2): inactive | inhibition (Histone deacetylase 3): inactive | inhibition [1]: inactive | inhibition (Histone deacetylase 4): inactive | inhibition (Histone deacetylase 5): inactive | inhibition [2]: inactive | inhibition [3]: inactive | inhibition (Histone deacetylase 9): inactive

SMILES: O=C(NO)[C@@H](Cc1ccccc1)n1nnc(-c2ccccc2)c1C#Cc1ccccc1
inhibition (Histone deacetylase 1): inactive | inhibition (Histone deacetylase 2): inactive | inhibition (Histone deacetylase 3): inactive | inhibition [1]: inactive | inhibition (Histone deacetylase 4): inactive | inhibition (Histone deacetylase 5): inactive | inhibition [2]: inactive | inhibition [3]: inactive | inhibition (Histone deacetylase 9): inactive

SMILES: COc1cc(OC)cc(-c2nnn([C@@H](Cc3ccccc3)C(=O)NO)c2C#CC2CC2)c1
IC50 (Histone deacetylase 8): 3 nM

SMILES: O=C(NO)[C@H](Cc1ccccc1)n1nnc(-c2ccccc2)c1/C=C/C1CC1
inhibition [3]: inactive

SMILES: O=C(NO)[C@H](Cc1ccccc1)n1nnc(-c2cccc(Cl)c2)c1C#CC1CC1
IC50 (Histone deacetylase 8): 8 nM
